Experimental data as given in US20260232767A1, “INTERLEUKIN-23 RECEPTOR ANTAGONIST PEPTIDES FOR USE IN THE TREATMENT OF PSORIASIS” (Janssen Pharmaceutica NV, priority 2023, published 2026).

Tested on: subjects with moderate-to-severe plaque psoriasis
Assay: Hematology and chemistry laboratory values by CTCAE grade
Type: in vivo, human
Details: through Week 56
Excerpt: The proportion of participants who discontinued study intervention due to one or more AEs was low (n=4). All events were singular in nature with no apparent dose-dependent increase (Table 48 and Table 52). The number of participants with abnormal hematology and chemistry laboratory values with CTCAE toxicity grade≥3 were low through the end of the study (Table 43 through Table 46). There was no apparent dose-dependent increase in laboratory abnormality occurrences.

[1] = Placebo → 100 mg QD after crossover

CC(=O)NCCCC[C@@H]1NC(=O)[C@H](Cc2c[nH]c3c(C)cccc23)NC(=O)[C@H]([C@@H](C)O)NC(=O)[C@H](CC(N)=O)NC(=O)[C@@H](NC(C)=O)C(C)(C)SSC(C)(C)[C@@H](C(=O)N[C@@H](Cc2ccc(OCCN)cc2)C(=O)N[C@@H](Cc2ccc3ccccc3c2)C(=O)NC2(C(=O)N[C@@H](CCC(=O)O)C(=O)N[C@@H](CC(N)=O)C(=O)N[C@@H](Cc3cccnc3)C(=O)N(C)CC(N)=O)CCOCC2)NC1=O [IL-23 receptor antagonist peptide, Ac-[Pen]*-N-T-[W(7-Me)]-[Lys(Ac)]-[Pen]*-Phe[4-(2-aminoethoxy)]-[2-Nal]-[THP]-E-N-[3-Pal]-Sarc-NH2 (*[Pen]-[Pen]* formdisulfidebond)]
9: Aspartate Aminotransferase (increased): Subjects with postbaseline maximum toxicity grade >0 (Placebo → 100 mg QD)
0: WBC (×10^9/L) (increased): subjects with Grade 2 (100 mg QD) | WBC (×10^9/L) (increased): subjects with Grade 3 (100 mg QD) | WBC (×10^9/L) (increased): subjects with Grade 4 (100 mg QD) | WBC (×10^9/L) (increased): subjects with postbaseline maximum toxicity grade >0 (100 mg QD) | Hemoglobin (g/L) (decreased): subjects with Grade 3 (Combined Formula (I) regimens) | Hemoglobin (g/L) (decreased): subjects with Grade 4 (Combined Formula (I) regimens) | Hemoglobin (g/L) (increased): subjects with Grade 2 (Combined Formula (I) regimens) | Hemoglobin (g/L) (increased): subjects with Grade 3 (Combined Formula (I) regimens) | Hemoglobin (g/L) (increased): subjects with Grade 4 (Combined Formula (I) regimens) | Lymphocytes (×10^9/L) (decreased): subjects with Grade 3 (Combined Formula (I) regimens) | Lymphocytes (×10^9/L) (decreased): subjects with Grade 4 (Combined Formula (I) regimens) | Lymphocytes (×10^9/L) (increased): subjects with Grade 1 (Combined Formula (I) regimens) | Lymphocytes (×10^9/L) (increased): subjects with Grade 3 (Combined Formula (I) regimens) | Lymphocytes (×10^9/L) (increased): subjects with Grade 4 (Combined Formula (I) regimens) | Neutrophils (×10^9/L) (decreased): subjects with Grade 3 (Combined Formula (I) regimens) | Neutrophils (×10^9/L) (decreased): subjects with Grade 4 (Combined Formula (I) regimens) | Platelets (×10^9/L) (decreased): subjects with Grade 2 (Combined Formula (I) regimens) | Platelets (×10^9/L) (decreased): subjects with Grade 3 (Combined Formula (I) regimens) | Platelets (×10^9/L) (decreased): subjects with Grade 4 (Combined Formula (I) regimens) | WBC (×10^9/L) (decreased): subjects with Grade 3 (Combined Formula (I) regimens) | WBC (×10^9/L) (decreased): subjects with Grade 4 (Combined Formula (I) regimens) | WBC (×10^9/L) (increased): subjects with Grade 1 (Combined Formula (I) regimens) | WBC (×10^9/L) (increased): subjects with Grade 2 (Combined Formula (I) regimens) | WBC (×10^9/L) (increased): subjects with Grade 3 (Combined Formula (I) regimens) | WBC (×10^9/L) (increased): subjects with Grade 4 (Combined Formula (I) regimens) | WBC (×10^9/L) (increased): subjects with postbaseline maximum toxicity grade >0 (Combined Formula (I) regimens) | Alanine Aminotransferase (increased): Subjects with Grade 4 (Combined) | Albumin (decreased): Subjects with Grade 1 (Combined) | Albumin (decreased): Subjects with Grade 2 (Combined) | Albumin (decreased): Subjects with Grade 3 (Combined) | Albumin (decreased): Subjects with Grade 4 (Combined) | Albumin (decreased): Subjects with postbaseline maximum toxicity grade >0 (Combined) | Alkaline Phosphatase (increased): Subjects with Grade 2 (Combined) | Alkaline Phosphatase (increased): Subjects with Grade 3 (Combined) | Alkaline Phosphatase (increased): Subjects with Grade 4 (Combined) | Aspartate Aminotransferase (increased): Subjects with Grade 4 (Combined) | Calcium corrected (decreased): Subjects with Grade 3 (Combined) | Calcium corrected (decreased): Subjects with Grade 4 (Combined) | Calcium corrected (increased): Subjects with Grade 2 (Combined) | Calcium corrected (increased): Subjects with Grade 3 (Combined) | Calcium corrected (increased): Subjects with Grade 4 (Combined) | Cholesterol (increased): Subjects with Grade 3 (Combined) | Cholesterol (increased): Subjects with Grade 4 (Combined) | Creatinine (increased): Subjects with Grade 3 (Combined) | Creatinine (increased): Subjects with Grade 4 (Combined) | Gamma Glutamyl Transferase (increased): Subjects with Grade 3 (Combined) | Gamma Glutamyl Transferase (increased): Subjects with Grade 4 (Combined) | Glucose (decreased): Subjects with Grade 3 (Combined) | Glucose (decreased): Subjects with Grade 4 (Combined) | Magnesium (decreased): Subjects with Grade 2 (Combined) | Magnesium (decreased): Subjects with Grade 3 (Combined) | Magnesium (decreased): Subjects with Grade 4 (Combined) | Magnesium (increased): Subjects with Grade 2 (Combined) | Magnesium (increased): Subjects with Grade 3 (Combined) | Magnesium (increased): Subjects with Grade 4 (Combined) | Potassium (decreased): Subjects with Grade 1 (Combined) | Potassium (decreased): Subjects with Grade 3 (Combined) | Potassium (decreased): Subjects with Grade 4 (Combined) | Potassium (increased): Subjects with Grade 4 (Combined) | Sodium (decreased): Subjects with Grade 2 (Combined) | Sodium (decreased): Subjects with Grade 3 (Combined) | Sodium (decreased): Subjects with Grade 4 (Combined) | Sodium (increased): Subjects with Grade 2 (Combined) | Sodium (increased): Subjects with Grade 3 (Combined) | Sodium (increased): Subjects with Grade 4 (Combined) | Total Bilirubin (increased): Subjects with Grade 3 (Combined) | Total Bilirubin (increased): Subjects with Grade 4 (Combined) | Hemoglobin (g/L) (decreased): subjects with Grade 2 [1] | Hemoglobin (g/L) (decreased): subjects with Grade 3 [1] | Hemoglobin (g/L) (decreased): subjects with Grade 4 [1] | Hemoglobin (g/L) (increased): subjects with Grade 2 [1] | Hemoglobin (g/L) (increased): subjects with Grade 3 [1] | Hemoglobin (g/L) (increased): subjects with Grade 4 [1] | Lymphocytes (×10^9/L) (decreased): subjects with Grade 1 [1] | Lymphocytes (×10^9/L) (decreased): subjects with Grade 3 [1] | Lymphocytes (×10^9/L) (decreased): subjects with Grade 4 [1] | Lymphocytes (×10^9/L) (increased): subjects with Grade 1 [1] | Lymphocytes (×10^9/L) (increased): subjects with Grade 2 [1] | Lymphocytes (×10^9/L) (increased): subjects with Grade 3 [1] | Lymphocytes (×10^9/L) (increased): subjects with Grade 4 [1] | Lymphocytes (×10^9/L) (increased): subjects with postbaseline maximum toxicity grade >0 [1] | Platelets (×10^9/L) (decreased): subjects with Grade 2 [1] | Platelets (×10^9/L) (decreased): subjects with Grade 3 [1] | Platelets (×10^9/L) (decreased): subjects with Grade 4 [1] | WBC (×10^9/L) (decreased): subjects with Grade 2 [1] | WBC (×10^9/L) (decreased): subjects with Grade 3 [1] | WBC (×10^9/L) (decreased): subjects with Grade 4 [1] | WBC (×10^9/L) (increased): subjects with Grade 1 [1] | WBC (×10^9/L) (increased): subjects with Grade 2 [1] | WBC (×10^9/L) (increased): subjects with Grade 3 [1] | WBC (×10^9/L) (increased): subjects with Grade 4 [1] | WBC (×10^9/L) (increased): subjects with postbaseline maximum toxicity grade >0 [1] | Alanine Aminotransferase (increased): Subjects with Grade 3 (Placebo → 100 mg QD) | Alanine Aminotransferase (increased): Subjects with Grade 4 (Placebo → 100 mg QD) | Albumin (decreased): Subjects with Grade 1 (Placebo → 100 mg QD) | Albumin (decreased): Subjects with Grade 2 (Placebo → 100 mg QD) | Albumin (decreased): Subjects with Grade 3 (Placebo → 100 mg QD) | Albumin (decreased): Subjects with Grade 4 (Placebo → 100 mg QD) | Albumin (decreased): Subjects with postbaseline maximum toxicity grade >0 (Placebo → 100 mg QD) | Alkaline Phosphatase (increased): Subjects with Grade 2 (Placebo → 100 mg QD) | Alkaline Phosphatase (increased): Subjects with Grade 3 (Placebo → 100 mg QD) | Alkaline Phosphatase (increased): Subjects with Grade 4 (Placebo → 100 mg QD) | Aspartate Aminotransferase (increased): Subjects with Grade 4 (Placebo → 100 mg QD) | Calcium corrected (decreased): Subjects with Grade 3 (Placebo → 100 mg QD) | Calcium corrected (decreased): Subjects with Grade 4 (Placebo → 100 mg QD) | Calcium corrected (increased): Subjects with Grade 1 (Placebo → 100 mg QD) | Calcium corrected (increased): Subjects with Grade 2 (Placebo → 100 mg QD) | Calcium corrected (increased): Subjects with Grade 3 (Placebo → 100 mg QD) | Calcium corrected (increased): Subjects with Grade 4 (Placebo → 100 mg QD) | Calcium corrected (increased): Subjects with postbaseline maximum toxicity grade >0 (Placebo → 100 mg QD) | Cholesterol (increased): Subjects with Grade 1 (Placebo → 100 mg QD) | Cholesterol (increased): Subjects with Grade 2 (Placebo → 100 mg QD) | Cholesterol (increased): Subjects with Grade 3 (Placebo → 100 mg QD) | Cholesterol (increased): Subjects with Grade 4 (Placebo → 100 mg QD) | Cholesterol (increased): Subjects with postbaseline maximum toxicity grade >0 (Placebo → 100 mg QD) | Creatine Kinase (increased): Subjects with Grade 2 (Placebo → 100 mg QD) | Creatine Kinase (increased): Subjects with Grade 4 (Placebo → 100 mg QD) | Creatinine (increased): Subjects with Grade 2 (Placebo → 100 mg QD) | Creatinine (increased): Subjects with Grade 3 (Placebo → 100 mg QD) | Creatinine (increased): Subjects with Grade 4 (Placebo → 100 mg QD) | Gamma Glutamyl Transferase (increased): Subjects with Grade 3 (Placebo → 100 mg QD) | Gamma Glutamyl Transferase (increased): Subjects with Grade 4 (Placebo → 100 mg QD) | Glucose (decreased): Subjects with Grade 3 (Placebo → 100 mg QD) | Glucose (decreased): Subjects with Grade 4 (Placebo → 100 mg QD) | Magnesium (decreased): Subjects with Grade 2 (Placebo → 100 mg QD) | Magnesium (decreased): Subjects with Grade 3 (Placebo → 100 mg QD) | Magnesium (decreased): Subjects with Grade 4 (Placebo → 100 mg QD) | Magnesium (increased): Subjects with Grade 2 (Placebo → 100 mg QD) | Magnesium (increased): Subjects with Grade 3 (Placebo → 100 mg QD) | Magnesium (increased): Subjects with Grade 4 (Placebo → 100 mg QD) | Potassium (decreased): Subjects with Grade 1 (Placebo → 100 mg QD) | Potassium (decreased): Subjects with Grade 3 (Placebo → 100 mg QD) | Potassium (decreased): Subjects with Grade 4 (Placebo → 100 mg QD) | Potassium (increased): Subjects with Grade 3 (Placebo → 100 mg QD) | Potassium (increased): Subjects with Grade 4 (Placebo → 100 mg QD) | Sodium (decreased): Subjects with Grade 1 (Placebo → 100 mg QD) | Sodium (decreased): Subjects with Grade 2 (Placebo → 100 mg QD) | Sodium (decreased): Subjects with Grade 3 (Placebo → 100 mg QD) | Sodium (decreased): Subjects with Grade 4 (Placebo → 100 mg QD) | Sodium (decreased): Subjects with postbaseline maximum toxicity grade >0 (Placebo → 100 mg QD) | Sodium (increased): Subjects with Grade 1 (Placebo → 100 mg QD) | Sodium (increased): Subjects with Grade 2 (Placebo → 100 mg QD) | Sodium (increased): Subjects with Grade 3 (Placebo → 100 mg QD) | Sodium (increased): Subjects with Grade 4 (Placebo → 100 mg QD) | Sodium (increased): Subjects with postbaseline maximum toxicity grade >0 (Placebo → 100 mg QD) | Total Bilirubin (increased): Subjects with Grade 2 (Placebo → 100 mg QD) | Total Bilirubin (increased): Subjects with Grade 3 (Placebo → 100 mg QD) | Total Bilirubin (increased): Subjects with Grade 4 (Placebo → 100 mg QD) | Triglycerides (increased): Subjects with Grade 3 (Placebo → 100 mg QD) | Triglycerides (increased): Subjects with Grade 4 (Placebo → 100 mg QD)
10: Alanine Aminotransferase (increased): Subjects with Grade 1 (Placebo → 100 mg QD)
